Results as given in ChEMBL document CHEMBL1201862, “PubChem BioAssay data set” (2004).
The source made the active and inactive calls.

How the values were obtained:
Streptococcus = assay: Group A Streptococcus viability loss, dose response, counter-screen for streptokinase expression inhibitor project, luminescence, BacTiterGlo (AID 1915); type: functional, organism-based;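 note: potency for reduction of bacterial viability or growth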
[1] = target: Photoreceptor-specific nuclear receptor (Homo sapiens, UniProt Q9Y5X4); type: functional, cell-based;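 note: CHO-S cells with Gal4-NCOR and VP16-NR2E3 two-hybrid luciferase reporter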
[2] = tested on: Streptococcus sp. 'group A'; assay: growth inhibition of control SK(-) GAS strain, dose response, counter-screen for streptokinase expression inhibitor project, luminescence, kanamycin, BacTiterGlo, confirmation (AID 1900); type: functional, organism-based
[3] = target: T1, Endoribonuclease toxin MazF (Escherichia coli K-12, UniProt P0AE70); assay: MazF toxin RNase activators, dose response, biochemical, fluorescence, single-stranded RNA substrate, uHTS hits (AID 588481); type: functional
T1 sequence (P0AE70 whole entry): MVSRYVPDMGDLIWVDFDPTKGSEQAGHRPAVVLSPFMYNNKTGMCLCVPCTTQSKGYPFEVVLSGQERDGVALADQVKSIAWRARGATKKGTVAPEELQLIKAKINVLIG

Streptokinase A = target: T2, Streptokinase A (Streptococcus pyogenes serotype M1, UniProt P10520); assay: S. pyogenes streptokinase expression inhibitors, potency, dose response, plasminogen activation absorbance, OD405 (AID 1914); type: functional, Streptococcus pyogenes M1 GAS;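 note: secreted streptokinase activity via plasminogen activation per viability signal from cell pellet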
T2 sequence (P10520 whole entry): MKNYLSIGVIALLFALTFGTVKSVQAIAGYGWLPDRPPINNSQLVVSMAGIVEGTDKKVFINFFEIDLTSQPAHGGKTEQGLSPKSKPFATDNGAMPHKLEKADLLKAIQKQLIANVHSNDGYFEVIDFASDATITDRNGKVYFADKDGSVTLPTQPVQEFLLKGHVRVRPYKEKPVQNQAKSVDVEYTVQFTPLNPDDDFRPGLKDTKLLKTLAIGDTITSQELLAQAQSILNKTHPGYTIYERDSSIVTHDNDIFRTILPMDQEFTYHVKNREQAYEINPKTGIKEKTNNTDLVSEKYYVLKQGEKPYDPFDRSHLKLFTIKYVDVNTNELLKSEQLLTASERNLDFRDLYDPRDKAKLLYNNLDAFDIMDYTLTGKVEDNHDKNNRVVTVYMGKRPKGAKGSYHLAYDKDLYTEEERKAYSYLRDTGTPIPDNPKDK

[4] = target: T1, Endoribonuclease toxin MazF; assay: fluorescent RNA oligo signal without MazF, dose response, counter-screen for MazEF activator project, biochemical, fluorescence, single-stranded RNase substrate (AID 588502); type: functional
[5] = target: T3, Zinc finger protein mex-5 (Caenorhabditis elegans, UniProt Q9XUB2); assay: MEX-5/TCR-2 RNA interaction inhibitors, dose response, biochemical, C. elegans, fluorescence polarization (AID 1960)
T3 sequence (Q9XUB2 whole entry): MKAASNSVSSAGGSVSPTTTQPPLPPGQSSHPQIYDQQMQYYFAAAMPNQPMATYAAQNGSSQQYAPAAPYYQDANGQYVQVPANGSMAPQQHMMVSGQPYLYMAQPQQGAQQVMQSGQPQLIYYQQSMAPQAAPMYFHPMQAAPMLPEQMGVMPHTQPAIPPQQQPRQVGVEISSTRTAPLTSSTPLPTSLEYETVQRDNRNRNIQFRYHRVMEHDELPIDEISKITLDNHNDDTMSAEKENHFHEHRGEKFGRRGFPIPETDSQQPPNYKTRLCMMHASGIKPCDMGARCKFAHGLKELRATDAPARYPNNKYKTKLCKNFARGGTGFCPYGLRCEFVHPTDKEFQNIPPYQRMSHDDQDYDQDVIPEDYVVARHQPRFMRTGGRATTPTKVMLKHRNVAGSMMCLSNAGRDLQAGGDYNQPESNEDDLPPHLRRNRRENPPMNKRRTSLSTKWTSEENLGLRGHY

Beta-galactosidase = Beta-galactosidase (Escherichia coli, UniProt Q8VNN2); assay: Dose response counterscreen for EBI2 assay utilizing the enzyme, b-galactosidase.; type: functional
[6] = target: T4, RNA-binding protein pos-1 (Caenorhabditis elegans, UniProt G5EF15); assay: inhibitors of POS-1/mex-3 RNA binding, dose response, biochemical, fluorescence polarization (AID 1964);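 note: purified POS-1 fused to maltose binding protein made in E. coli; potency of compounds blocking POS-1 binding to fluorescent RNA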
T4 sequence (G5EF15 whole entry): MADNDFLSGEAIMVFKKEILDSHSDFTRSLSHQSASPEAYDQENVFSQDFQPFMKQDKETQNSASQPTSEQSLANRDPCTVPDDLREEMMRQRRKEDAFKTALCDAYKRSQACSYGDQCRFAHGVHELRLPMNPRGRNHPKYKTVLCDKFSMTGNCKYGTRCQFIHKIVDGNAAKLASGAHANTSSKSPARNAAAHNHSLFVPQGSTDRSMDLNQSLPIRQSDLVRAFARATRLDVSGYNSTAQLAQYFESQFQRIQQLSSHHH

[7] = Luminescence Cell-Based Dose Response HTS to Identify Activators of Luciferase Translation or Activity in H4 […] Cells. [Related pubchem assays: 1829 (Project Summary), 1814 (Primary HTS)]; type: functional
H4 = assay: Luminescence Cell-Based Dose Response HTS to Identify Activators of 5'UTR Stem-Loop Driven Prion Protein mRNA Translation in H4 Neuroglioblastoma Cells. [Related pubchem assays: 1829 (Project Summary), 1814 (Primary HTS)]; type: functional; conditions: Homo sapiens
[8] = HepG2 cell cytotoxicity, dose response, cytotoxicity control, ATP luminescence, cherry-pick, activator set 2 (AID 1053143); type: functional, cell-based
cells [9] = type: functional, cell-based
cells [10] = type: functional, cell-based; remark: listed apart in the source
[11] = control 3'UTR Renilla luciferase suppression, dose response, counter-screen for Shn3 inhibitor project, cell-based, Clone20-Shn3RL, cherry-picked (AID 624133); type: functional
Protein Wnt-3a = Protein Wnt-3a (Mus musculus, UniProt P27467); assay: Wnt3a-driven reporter signaling inhibition, dose response, selectivity assay for Gli-SUFU antagonist project, Wnt-LIGHT cells, luminescence (AID 651570); type: functional; conditions: read-out: IC50_Mean;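 note: Wnt-LIGHT reporter cells stimulated with conditioned medium from Wnt3a-producing cells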
[12] = HepG2 cell cytotoxicity, dose response, cytotoxicity control for Shn3 inhibitor project, CellTiter-Glo, cherry-picked (AID 624134); type: functional, cell-based
[13] = target: Fructose-bisphosphate aldolase (Mycobacterium tuberculosis, UniProt P9WQA3); assay: Fluorescence-based biochemical high throughput dose response assay for inhibitors of the fructose-bisphosphate aldolase (FBA) of M. tuberculosis.; type: functional
[14] = HEK293 Cytotoxicity Assay Measured in Cell-Based System Using Plate Reader - 7071-01_Inhibitor_Dose_CherryPick_Activity_Set2.; type: functional
HEK293 = assay: HEK293T cell cytotoxicity, dose response, cytotoxicity control, ATP luminescence, cherry-pick samples (AID 687005); type: functional, cell-based; conditions: Homo sapiens;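 note: cells exposed to compound for 48 hours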

Chain of Protein Wnt-3a (P27467 whole entry): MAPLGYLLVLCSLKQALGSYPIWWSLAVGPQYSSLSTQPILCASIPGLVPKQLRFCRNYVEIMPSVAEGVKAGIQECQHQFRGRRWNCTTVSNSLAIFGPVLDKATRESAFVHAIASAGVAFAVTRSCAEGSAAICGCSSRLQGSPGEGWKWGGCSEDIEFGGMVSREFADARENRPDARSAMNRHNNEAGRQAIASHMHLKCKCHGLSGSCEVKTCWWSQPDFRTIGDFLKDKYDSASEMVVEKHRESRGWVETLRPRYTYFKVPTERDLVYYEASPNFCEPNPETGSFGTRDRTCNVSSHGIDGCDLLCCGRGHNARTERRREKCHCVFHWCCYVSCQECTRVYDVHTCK
Chain of Fructose-bisphosphate aldolase (P9WQA3 whole entry): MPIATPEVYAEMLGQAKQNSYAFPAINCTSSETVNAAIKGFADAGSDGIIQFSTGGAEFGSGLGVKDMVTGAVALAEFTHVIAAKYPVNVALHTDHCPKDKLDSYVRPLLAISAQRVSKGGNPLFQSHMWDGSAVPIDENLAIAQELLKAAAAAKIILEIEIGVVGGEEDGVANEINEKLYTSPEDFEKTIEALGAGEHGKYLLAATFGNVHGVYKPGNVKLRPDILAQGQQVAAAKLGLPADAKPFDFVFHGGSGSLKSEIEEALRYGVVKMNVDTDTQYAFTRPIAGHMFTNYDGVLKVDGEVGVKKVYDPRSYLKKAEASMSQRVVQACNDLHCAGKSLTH
Chain of Photoreceptor-specific nuclear receptor (Q9Y5X4 whole entry, the tested form may be a part): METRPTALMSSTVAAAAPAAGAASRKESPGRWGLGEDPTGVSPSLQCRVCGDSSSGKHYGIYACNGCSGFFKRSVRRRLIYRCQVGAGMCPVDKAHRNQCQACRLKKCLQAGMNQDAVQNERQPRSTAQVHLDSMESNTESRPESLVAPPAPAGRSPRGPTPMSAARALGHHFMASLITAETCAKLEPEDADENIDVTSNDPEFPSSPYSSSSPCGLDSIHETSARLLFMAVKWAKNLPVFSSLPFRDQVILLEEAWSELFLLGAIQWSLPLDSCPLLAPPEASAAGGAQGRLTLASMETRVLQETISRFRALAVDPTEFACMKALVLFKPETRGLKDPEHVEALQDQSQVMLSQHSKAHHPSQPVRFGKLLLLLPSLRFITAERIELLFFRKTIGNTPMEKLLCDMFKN
Chain of Beta-galactosidase (Q8VNN2 whole entry, the tested form may be a part): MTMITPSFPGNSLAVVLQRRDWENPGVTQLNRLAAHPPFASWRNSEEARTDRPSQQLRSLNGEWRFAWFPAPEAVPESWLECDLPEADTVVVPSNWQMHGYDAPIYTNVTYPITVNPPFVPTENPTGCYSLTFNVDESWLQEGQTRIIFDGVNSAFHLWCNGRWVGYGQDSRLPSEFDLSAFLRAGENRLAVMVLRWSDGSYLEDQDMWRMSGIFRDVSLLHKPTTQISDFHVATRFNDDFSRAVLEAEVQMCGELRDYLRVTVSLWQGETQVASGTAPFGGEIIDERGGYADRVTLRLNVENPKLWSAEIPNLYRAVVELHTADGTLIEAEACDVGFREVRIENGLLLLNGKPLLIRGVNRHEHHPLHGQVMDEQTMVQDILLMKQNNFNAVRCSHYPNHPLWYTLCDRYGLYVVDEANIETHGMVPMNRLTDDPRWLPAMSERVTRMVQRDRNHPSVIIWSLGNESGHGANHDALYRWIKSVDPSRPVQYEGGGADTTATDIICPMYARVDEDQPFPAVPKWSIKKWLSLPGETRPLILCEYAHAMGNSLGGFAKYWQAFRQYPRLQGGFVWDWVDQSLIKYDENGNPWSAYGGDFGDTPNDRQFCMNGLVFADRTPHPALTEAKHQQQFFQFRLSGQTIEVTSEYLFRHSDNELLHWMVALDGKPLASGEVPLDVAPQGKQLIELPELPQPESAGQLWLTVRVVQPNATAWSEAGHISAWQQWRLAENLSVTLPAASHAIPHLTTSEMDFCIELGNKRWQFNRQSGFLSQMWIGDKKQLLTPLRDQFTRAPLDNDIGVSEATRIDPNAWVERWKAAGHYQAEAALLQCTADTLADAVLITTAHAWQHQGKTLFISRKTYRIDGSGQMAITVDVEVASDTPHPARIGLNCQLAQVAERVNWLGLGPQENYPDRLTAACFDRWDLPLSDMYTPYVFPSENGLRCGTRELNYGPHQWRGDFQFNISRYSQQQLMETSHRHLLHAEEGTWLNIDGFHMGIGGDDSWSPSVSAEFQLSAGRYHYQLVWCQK

Question: Which results are given for `CC(=O)c1c(O)cc(O)c(C(C)=O)c1O`?
Answer: EC50 (Streptococcus): 3.98 µM (active); IC50 [1]: 3.24 µM (active); EC50 [2]: 3.9 µM (active)

Question: With `COC(=O)/C=C1\C(=O)N(c2nc3ccccc3s2)C(=S)N1c1ccc(F)cc1` as the molecule, how does the EC50 [3] read?
Answer: > 99 µM (inactive)

Question: And the EC50 (Streptokinase A)?
Answer: > 150 µM (not active)

Question: And the EC50 (Streptococcus)?
Answer: > 150 µM (not active)

Question: And the EC50 [4]?
Answer: > 99 µM (inactive)

Question: And the EC50 [5]?
Answer: > 300 µM (not active)

Question: And the IC50 (Beta-galactosidase)?
Answer: > 80 µM (inactive)

Question: What about the EC50 [6] of the same molecule?
Answer: > 300 µM (not active)

Question: With `CCOC(=O)C1CCN(c2ccc(-c3cccs3)nn2)CC1` as the molecule, how does the EC50 [7] read?
Answer: 0.391 µM (active)

Question: What about the EC50 (H4) of the same molecule?
Answer: 96.1 µM (active)

Question: And the AC50 [8]?
Answer: 26 µM (active)

Question: Which IC50 (cells [9]) does the source give for `Oc1ccnc(NCCc2ccccc2)n1` here?
Answer: > 29.9 µM (inactive)

Question: What about the EC50 (cells [10]) of the same molecule?
Answer: > 29.9 µM (inactive)

Question: With `CCCCCCCN1C2=NCCCN2c2ccccc21` as the molecule, how does the AC50 [11] read?
Answer: 11.8 µM (active)

Question: And the IC50 (Protein Wnt-3a)?
Answer: 12.6 µM (active)

Question: What about the AC50 [12] of the same molecule?
Answer: 46 µM (active)

Question: For `CCC(=O)Nc1ccc2c(c1)C(=O)N(C)C2=O`, which IC50 [13] is on record?
Answer: 4.38 µM (active)

Question: Which results are given for `COc1ccccc1CNC(=O)C[C@@H]1CC[C@@H]2[C@H](COc3ccc(NC(C)=O)cc3C(=O)N2C)O1`?
Answer: AC50 [14]: 37.8 µM (active); AC50 (HEK293): 37.8 µM (active)
